Reference: ChEMBL document CHEMBL3885881, “DrugMatrix”

Species on record: Rattus norvegicus
Assay: DrugMatrix - Regimen: Daily Repeat
Assay type: toxicity, organism-based, Sprague-Dawley
Design: regimen Daily Repeat, gender Male, age 6-8 weeks
Settings: in vivo, po, route oral GAVAGE, […]; for ABSOLUTE BASOPHIL / ABSOLUTE EOSINOPHIL / ABSOLUTE LYMPHOCYTE / ABSOLUTE MONOCYTE / BASOPHIL / EOSINOPHIL / ERYTHROCYTE COUNT / HEMATOCRIT / HEMOGLOBIN / LEUKOCYTE COUNT / LYMPHOCYTE / MEAN CORPUSCULAR HEMOGLOBIN / MEAN CORPUSCULAR HEMOGLOBIN CONCENTRATION / MEAN CORPUSCULAR VOLUME / MONOCYTE / NEUTROPHIL / PLATELET COUNT: tissue Blood; for ALANINE AMINOTRANSFERASE / ALBUMIN / ALKALINE PHOSPHATASE / ASPARTATE AMINOTRANSFERASE / BLOOD UREA NITROGEN / CARBON DIOXIDE / CHLORIDE / CHOLESTEROL / CREATINE PHOSPHOKINASE / CREATININE / GLUCOSE / LIPASE / PHOSPHORUS / POTASSIUM / SODIUM / TOTAL BILIRUBIN / TOTAL PROTEIN / URIC ACID / LACTATE DEHYDROGENASE: tissue Plasma
[1] = 0 mg/kg, 72 h, dose level Control, time 3 day
[2] = 0 mg/kg, 120 h, dose level Control, time 5 day
[3] = 0 mg/kg, dose level Control, time 14 day
[4] = 900 mg/kg, 72 h, dose level High, time 3 day
[5] = 900 mg/kg, 120 h, dose level High, time 5 day
[6] = 900 mg/kg, dose level High, time 14 day

## Clc1ccc(Cl)cc1 [1,4-DICHLOROBENZENE]
[1]
  ABSOLUTE BASOPHIL: 50 cells/µL
  ABSOLUTE EOSINOPHIL: 43.3 cells/µL
  ABSOLUTE LYMPHOCYTE: 9670 cells/µL
  ABSOLUTE MONOCYTE: 210 cells/µL
  BASOPHIL: 0.4%
  EOSINOPHIL: 0.37%
  ERYTHROCYTE COUNT: 6.82 x10E6/uL
  HEMATOCRIT: 46.77%
  HEMOGLOBIN: 14.53 G/DL
  LEUKOCYTE COUNT: 11.77 x10E3/uL
  LYMPHOCYTE: 82.1%
  MEAN CORPUSCULAR HEMOGLOBIN: 21.33 pg
  MEAN CORPUSCULAR HEMOGLOBIN CONCENTRATION: 31.13 G/DL
  MEAN CORPUSCULAR VOLUME: 68.57 fL
  MONOCYTE: 1.8%
  NEUTROPHIL: 14.83%
  PLATELET COUNT: 1303.33 x10E3/uL
  ALANINE AMINOTRANSFERASE: 46.67 u/L
  ALBUMIN: 4.17 G/DL
  ALKALINE PHOSPHATASE: 530 u/L
  ASPARTATE AMINOTRANSFERASE: 81.33 u/L
  BLOOD UREA NITROGEN: 17.67 mg/dL
  CARBON DIOXIDE: 41.67 mmol/L
  CHLORIDE: 102 MEQ/L
  CHOLESTEROL: 70.33 mg/dL
  CREATINE PHOSPHOKINASE: 372.67 u/L
  CREATININE: 0.5 mg/dL
  GLUCOSE: 184 mg/dL
  LIPASE: 13.33 u/L
  PHOSPHORUS: 10.2 mg/dL
  POTASSIUM: 6.13 MEQ/L
  SODIUM: 145 MEQ/L
  TOTAL BILIRUBIN: 0.43 mg/dL
  TOTAL PROTEIN: 6.7 G/DL
  URIC ACID: 0.83 mg/dL
[2]
  ABSOLUTE BASOPHIL: 33.3 cells/µL
  ABSOLUTE EOSINOPHIL: 56.7 cells/µL
  ABSOLUTE LYMPHOCYTE: 9220 cells/µL
  ABSOLUTE MONOCYTE: 230 cells/µL
  BASOPHIL: 0.3%
  EOSINOPHIL: 0.5%
  ERYTHROCYTE COUNT: 6.62 x10E6/uL
  HEMATOCRIT: 46.43%
  HEMOGLOBIN: 14.3 G/DL
  LEUKOCYTE COUNT: 10.96 x10E3/uL
  LYMPHOCYTE: 83.83%
  MEAN CORPUSCULAR HEMOGLOBIN: 21.57 pg
  MEAN CORPUSCULAR HEMOGLOBIN CONCENTRATION: 30.77 G/DL
  MEAN CORPUSCULAR VOLUME: 70.13 fL
  MONOCYTE: 2.1%
  NEUTROPHIL: 12.53%
  PLATELET COUNT: 1056.67 x10E3/uL
  ALANINE AMINOTRANSFERASE: 41.33 u/L
  ALBUMIN: 4.07 G/DL
  ALKALINE PHOSPHATASE: 603.33 u/L
  ASPARTATE AMINOTRANSFERASE: 80 u/L
  BLOOD UREA NITROGEN: 14.67 mg/dL
  CARBON DIOXIDE: 43 mmol/L
  CHLORIDE: 104 MEQ/L
  CHOLESTEROL: 88.33 mg/dL
  CREATINE PHOSPHOKINASE: 391.67 u/L
  CREATININE: 0.47 mg/dL
  GLUCOSE: 156 mg/dL
  LIPASE: 10.67 u/L
  PHOSPHORUS: 9.03 mg/dL
  POTASSIUM: 6.1 MEQ/L
  SODIUM: 145.67 MEQ/L
  TOTAL BILIRUBIN: 0.37 mg/dL
  TOTAL PROTEIN: 6.53 G/DL
  URIC ACID: 0.5 mg/dL
[3]
  ABSOLUTE BASOPHIL: 73.3 cells/µL
  ABSOLUTE EOSINOPHIL: 60 cells/µL
  ABSOLUTE LYMPHOCYTE: 12200 cells/µL
  ABSOLUTE MONOCYTE: 250 cells/µL
  BASOPHIL: 0.5%
  EOSINOPHIL: 0.37%
  ERYTHROCYTE COUNT: 7.33 x10E6/uL
  HEMATOCRIT: 44.3%
  HEMOGLOBIN: 14.77 G/DL
  LEUKOCYTE COUNT: 14.86 x10E3/uL
  LYMPHOCYTE: 81.87%
  MEAN CORPUSCULAR HEMOGLOBIN: 20.2 pg
  MEAN CORPUSCULAR HEMOGLOBIN CONCENTRATION: 33.33 G/DL
  MEAN CORPUSCULAR VOLUME: 60.57 fL
  MONOCYTE: 1.63%
  NEUTROPHIL: 14.93%
  PLATELET COUNT: 1101.67 x10E3/uL
  ALANINE AMINOTRANSFERASE: 31.67 u/L
  ALBUMIN: 3.83 G/DL
  ALKALINE PHOSPHATASE: 430.67 u/L
  ASPARTATE AMINOTRANSFERASE: 87 u/L
  BLOOD UREA NITROGEN: 14.33 mg/dL
  CARBON DIOXIDE: 39 mmol/L
  CHLORIDE: 104 MEQ/L
  CHOLESTEROL: 66 mg/dL
  CREATINE PHOSPHOKINASE: 441.67 u/L
  CREATININE: 0.7 mg/dL
  GLUCOSE: 125.67 mg/dL
  LACTATE DEHYDROGENASE: 397.67 u/L
  LIPASE: 12.33 u/L
  PHOSPHORUS: 9.87 mg/dL
  POTASSIUM: 5.93 MEQ/L
  SODIUM: 145 MEQ/L
  TOTAL BILIRUBIN: 0.37 mg/dL
  TOTAL PROTEIN: 6.27 G/DL
  URIC ACID: 0.67 mg/dL
[4]
  ABSOLUTE BASOPHIL: 33.3 cells/µL
  ABSOLUTE EOSINOPHIL: 40 cells/µL
  ABSOLUTE LYMPHOCYTE: 9740 cells/µL
  ABSOLUTE MONOCYTE: 310 cells/µL
  BASOPHIL: 0.27%
  EOSINOPHIL: 0.33%
  ERYTHROCYTE COUNT: 7.33 x10E6/uL
  HEMATOCRIT: 47.67%
  HEMOGLOBIN: 15.3 G/DL
  LEUKOCYTE COUNT: 11.53 x10E3/uL
  LYMPHOCYTE: 85.37%
  MEAN CORPUSCULAR HEMOGLOBIN: 20.83 pg
  MEAN CORPUSCULAR HEMOGLOBIN CONCENTRATION: 32.07 G/DL
  MEAN CORPUSCULAR VOLUME: 65 fL
  MONOCYTE: 2.5%
  NEUTROPHIL: 11%
  PLATELET COUNT: 1237 x10E3/uL
  ALANINE AMINOTRANSFERASE: 80.33 u/L
  ALBUMIN: 3.47 G/DL
  ALKALINE PHOSPHATASE: 437.33 u/L
  ASPARTATE AMINOTRANSFERASE: 129.33 u/L
  BLOOD UREA NITROGEN: 18.67 mg/dL
  CARBON DIOXIDE: 40 mmol/L
  CHLORIDE: 106.67 MEQ/L
  CHOLESTEROL: 71 mg/dL
  CREATINE PHOSPHOKINASE: 391 u/L
  CREATININE: 0.63 mg/dL
  GLUCOSE: 167.33 mg/dL
  LIPASE: 199.33 u/L
  PHOSPHORUS: 9.67 mg/dL
  POTASSIUM: 5.7 MEQ/L
  SODIUM: 148.67 MEQ/L
  TOTAL BILIRUBIN: 0.83 mg/dL
  TOTAL PROTEIN: 5.53 G/DL
  URIC ACID: 0.77 mg/dL
[5]
  ABSOLUTE BASOPHIL: 30 cells/µL
  ABSOLUTE EOSINOPHIL: 80 cells/µL
  ABSOLUTE LYMPHOCYTE: 9070 cells/µL
  ABSOLUTE MONOCYTE: 300 cells/µL
  BASOPHIL: 0.3%
  EOSINOPHIL: 0.73%
  ERYTHROCYTE COUNT: 7.06 x10E6/uL
  HEMATOCRIT: 45.4%
  HEMOGLOBIN: 14.13 G/DL
  LEUKOCYTE COUNT: 11.69 x10E3/uL
  LYMPHOCYTE: 77.37%
  MEAN CORPUSCULAR HEMOGLOBIN: 20.03 pg
  MEAN CORPUSCULAR HEMOGLOBIN CONCENTRATION: 31.1 G/DL
  MEAN CORPUSCULAR VOLUME: 64.53 fL
  MONOCYTE: 2.57%
  NEUTROPHIL: 18.23%
  PLATELET COUNT: 1234.33 x10E3/uL
  ALANINE AMINOTRANSFERASE: 88.67 u/L
  ALBUMIN: 3.83 G/DL
  ALKALINE PHOSPHATASE: 433.33 u/L
  ASPARTATE AMINOTRANSFERASE: 100.33 u/L
  BLOOD UREA NITROGEN: 16 mg/dL
  CARBON DIOXIDE: 42.33 mmol/L
  CHLORIDE: 105.33 MEQ/L
  CHOLESTEROL: 119 mg/dL
  CREATINE PHOSPHOKINASE: 376.67 u/L
  CREATININE: 0.5 mg/dL
  GLUCOSE: 166.67 mg/dL
  LIPASE: 96 u/L
  PHOSPHORUS: 9.13 mg/dL
  POTASSIUM: 5.73 MEQ/L
  SODIUM: 148.67 MEQ/L
  TOTAL BILIRUBIN: 0.6 mg/dL
  TOTAL PROTEIN: 6.27 G/DL
  URIC ACID: 0.57 mg/dL
[6]
  ABSOLUTE BASOPHIL: 52 cells/µL
  ABSOLUTE EOSINOPHIL: 38 cells/µL
  ABSOLUTE LYMPHOCYTE: 10600 cells/µL
  ABSOLUTE MONOCYTE: 320 cells/µL
  BASOPHIL: 0.36%
  EOSINOPHIL: 0.28%
  ERYTHROCYTE COUNT: 7.26 x10E6/uL
  HEMATOCRIT: 44.36%
  HEMOGLOBIN: 14.58 G/DL
  LEUKOCYTE COUNT: 14.34 x10E3/uL
  LYMPHOCYTE: 74.48%
  MEAN CORPUSCULAR HEMOGLOBIN: 20.04 pg
  MEAN CORPUSCULAR HEMOGLOBIN CONCENTRATION: 32.82 G/DL
  MEAN CORPUSCULAR VOLUME: 61.16 fL
  MONOCYTE: 2.18%
  NEUTROPHIL: 22.12%
  PLATELET COUNT: 1242.2 x10E3/uL
  ALANINE AMINOTRANSFERASE: 68 u/L
  ALBUMIN: 4.02 G/DL
  ALKALINE PHOSPHATASE: 529.2 u/L
  ASPARTATE AMINOTRANSFERASE: 89.8 u/L
  BLOOD UREA NITROGEN: 15.8 mg/dL
  CARBON DIOXIDE: 43.6 mmol/L
  CHLORIDE: 102.2 MEQ/L
  CHOLESTEROL: 110.2 mg/dL
  CREATINE PHOSPHOKINASE: 309 u/L
  CREATININE: 0.78 mg/dL
  GLUCOSE: 134.2 mg/dL
  LACTATE DEHYDROGENASE: 217.6 u/L
  LIPASE: 10 u/L
  PHOSPHORUS: 9.34 mg/dL
  POTASSIUM: 5.94 MEQ/L
  SODIUM: 147.8 MEQ/L
  TOTAL BILIRUBIN: 0.44 mg/dL
  TOTAL PROTEIN: 6.7 G/DL
  URIC ACID: 0.52 mg/dL
